Tests used:
[1] = test system: ARE-driven luciferase activity in AREc32 cells; experiment: Induction of ARE-driven luciferase activity in stable AREc32 reporter cells; format: cell-based, human; settings: for CD, concentration of inducting agent that doubled luciferase reporter activity: DMSO set at 1; for effect on luciferase activity in AREc32 cells (in words): sub-lethal doses, no BSO; for Type of modulation: grouping of drugs by effect on luciferase activity
[2] = test system: AKR1C mRNA in AREc32 cells; experiment: AKR1C mRNA in AREc32 cells (TaqMan); settings: without pre-treatment with BSO; 24 h
[3] = test system: ARE-driven luciferase activity in AREc32 cells; experiment: Antagonism of induced ARE-driven luciferase activity in AREc32 cells; format: cell-based, human; settings: 5 mM NAC; BSO pre-treated cells; cisplatin, melphalan, chlorambucil, BCNU
[4] = test system: AKR1C and NQO1 protein in MCF7 cells; experiment: AKR1C and NQO1 protein in MCF7 cells (Western blots); format: cell-based, human; settings: sulforaphane 5 μM + retinoid 0.5 μM, 24 hrs
Method: Method: AREc32 cells were seeded out in 96 well plates and treated with DMSO (control), tBHQ (50 μM), tBHQ+BTB09463 (5 μM) or tBHQ+Retinoic acid (1 μM). After 24 hours incubation, cells were washed and lysed before measuring luciferase activity. BTB09463 is 1-{4-[(3,4-dichlorobenzyl)oxy]phenyl}ethan-1-one. […] Method: AREc32 cells were seeded out in 96 well plates and dosed with BTB09463 (2.5, 5 or 10 μM) for 0, 24 or 48 hrs before treatment with tBHQ (50 μM). 24 hours after the addition of tBHQ, cells were washed and lysed before measuring luciferase activity. […] Method: ARE c32 cells were seeded out in 96 well plates and treated with DMSO (control), tBHQ (50 μM), tBHQ+retinoid (0.25, 0.5 and 1 μM). After 24 hours incubation, cells were washed and lysed before measuring luciferase activity. […] See FIG. 16 Method: A. Caco-2 cells were treated with the known ARE-gene inducer sulforaphane (5 μM), either alone or concomitantly with BTB09463 (5 μM) or Retinoic acid (1 μM). After 24 hrs, cell lysates were prepared and Western blotting performed to measure the levels of AKR1C protein. B. MCF7 cells were treated with sulforaphane (5 μM), either alone or concomitantly with BTB09463 (5 μM). After 24 hrs, cell lysates were prepared and Western blots performed to detect the levels of AKR1C and NQO1; GAPDH was used as a loading control in MCF7 cells. […] Method: Caco-2 cells were treated with DMSO (control), BTB09463 (5 μM), sulforaphane (5 μM) or a combination of sulforaphane plus BTB09463. After 24 hrs treatment, cells were harvested and RNA isolated. cDNA for each sample was generated by reverse transcription and subsequently used in real time PCR analysis of gene transcription (TaqMan analysis) for the ARE-driven genes AKR1C1 and NQO1. Data was normalised to the internal control 18S RNA and the relative levels of AKR1C1 and NQO1 calculated using the comparative CT method. […] Method: MCF7 cells were treated with the known ARE-gene inducer sulforaphane (5 μM), either alone or with various retinoids (0.5 μM). After 24 hrs, cell lysates were prepared and Western blots were performed to detect the levels of AKR1C protein present. […] See FIG. 19 Method: ARE reporter cell line AREc23 was seeded into 96 well plates and treated with a previously determined non-toxic concentration of cytotoxic drug. After 24 hours incubation, cells were washed and lysed before measuring luciferase activity. […] See FIG. 20a Method: ARE reporter cell line AREc23 was seeded into 96 well plates and treated with DMSO (control), Carmustine (100 μM), Carmustine+BTB09463 (5 μM) or Carmustine+Retinoic acid (5 μM) After 24 hours incubation, cells were washed and lysed before measuring luciferase activity. […] After 24 hours incubation, cells were washed and lysed before measuring luciferase activity. B. Modified repeat of experiment A, with cells being pretreated with L-buthionine-(SR)-sulfoximine (BSO), an inhibitor of enzymes in the glutathione synthesis pathway. After 24 hours incubation, cells were washed and lysed before measuring luciferase activity. […] Method: Caco-2 cells were treated for 24 hrs with DMSO (control), Carmustine (100 μM), Carmustine+BTB09463 (5 μM). After 24 hrs, cell lysates were prepared and Western blots to detect the levels of AKR1C. […] Method: MCF7 cells were treated for 24 hrs with DMSO (control; Lane 1), Sulforaphane (5 μM) (Lane 2), Carmustine (100 μM) (Lane 3), Carmustine+BTB09463 (5 μM) (Lane 5). (Lane 4 represents experimental conditions irrelevant to the application). After 24 hrs, cell lysates were prepared and Western blots to detect the levels of Nrf2, NQO1 and AKR1C proteins.

MCF7 cells = experiment: cells; format: cell-based
[5] = test system: AKR1C1, NQO1, GCLC, GCLM mRNA in A549 cells; experiment: Constitutive mRNA of ARE-driven genes in A549 cells (Taqman); format: cell-based, human; settings: BTB09463 1, 5, 20, 40 μmol/l or retinoids 0.050, 0.20, 0.50, 2.0 μmol/l, 24 hrs
[6] = test system: AKR1C1 and NQO1 mRNA in Caco-2 cells; experiment: AKR1C1 and NQO1 mRNA in Caco-2 cells (TaqMan); format: cell-based, human; settings: sulforaphane 5 μM, 24 hrs
Method: Method: AREc32 cells were seeded out in 96 well plates and treated with DMSO (control), tBHQ (50 μM), tBHQ+BTB09463 (5 μM) or tBHQ+Retinoic acid (1 μM). After 24 hours incubation, cells were washed and lysed before measuring luciferase activity. BTB09463 is 1-{4-[(3,4-dichlorobenzyl)oxy]phenyl}ethan-1-one. […] Method: AREc32 cells were seeded out in 96 well plates and dosed with BTB09463 (2.5, 5 or 10 μM) for 0, 24 or 48 hrs before treatment with tBHQ (50 μM). 24 hours after the addition of tBHQ, cells were washed and lysed before measuring luciferase activity. […] Method: ARE c32 cells were seeded out in 96 well plates and treated with DMSO (control), tBHQ (50 μM), tBHQ+retinoid (0.25, 0.5 and 1 μM). After 24 hours incubation, cells were washed and lysed before measuring luciferase activity. […] See FIG. 16 Method: A. Caco-2 cells were treated with the known ARE-gene inducer sulforaphane (5 μM), either alone or concomitantly with BTB09463 (5 μM) or Retinoic acid (1 μM). After 24 hrs, cell lysates were prepared and Western blotting performed to measure the levels of AKR1C protein. B. MCF7 cells were treated with sulforaphane (5 μM), either alone or concomitantly with BTB09463 (5 μM). After 24 hrs, cell lysates were prepared and Western blots performed to detect the levels of AKR1C and NQO1; GAPDH was used as a loading control in MCF7 cells. […] Method: Caco-2 cells were treated with DMSO (control), BTB09463 (5 μM), sulforaphane (5 μM) or a combination of sulforaphane plus BTB09463. After 24 hrs treatment, cells were harvested and RNA isolated. cDNA for each sample was generated by reverse transcription and subsequently used in real time PCR analysis of gene transcription (TaqMan analysis) for the ARE-driven genes AKR1C1 and NQO1. Data was normalised to the internal control 18S RNA and the relative levels of AKR1C1 and NQO1 calculated using the comparative CT method. […] Method: MCF7 cells were treated with the known ARE-gene inducer sulforaphane (5 μM), either alone or with various retinoids (0.5 μM). After 24 hrs, cell lysates were prepared and Western blots were performed to detect the levels of AKR1C protein present. […] See FIG. 19 Method: ARE reporter cell line AREc23 was seeded into 96 well plates and treated with a previously determined non-toxic concentration of cytotoxic drug. After 24 hours incubation, cells were washed and lysed before measuring luciferase activity. […] See FIG. 20a Method: ARE reporter cell line AREc23 was seeded into 96 well plates and treated with DMSO (control), Carmustine (100 μM), Carmustine+BTB09463 (5 μM) or Carmustine+Retinoic acid (5 μM) After 24 hours incubation, cells were washed and lysed before measuring luciferase activity. […] After 24 hours incubation, cells were washed and lysed before measuring luciferase activity. […]

A549 cells = experiment: Cytotoxicity in A549 cells (ATP levels, 72 h); format: cell-based, human; settings: single agent

With `COS(C)(=O)=O` [MMS] the “CD, concentration of inducting agent that doubled luciferase reporter activity” value (“CD, concentration” below) ([1]; AREc32, 24 h) was 100 µM.

With `N[C@@H](Cc1ccc(N(CCCl)CCCl)cc1)C(=O)O` [Mephalan, melphalan] the “induction of luciferase activity after BSO pre-treatment” value ([1]; 50 μM BSO 24 h, then 10 μM cisplatin, 20 μM melphalan, 100 μM BCNU or 100 μM chlorambucil 24 h) was 5 fold, the “effect on luciferase activity in AREc32 cells (in words)” value (shortened to “effect on luciferase activity”) ([1]; 24 h, listed as melphalan) was “weak inducers” and the “effect on luciferase activity” value ([1]; 24 h, listed as mephalan) was “modestly increased”. For the same molecule, the “Fold increase (luciferase activity relative to control value)” value ([1]; AREc32, 24 h, concentration of each drug given in column Conc., mean ± S.D.) was 1.3 ± 0.06, the Type of modulation ([1]; AREc32, 24 h) was “Weak inducers” and the “mRNA level of AKR1C (in words)” value [2] was “only slightly increased”.

`CN(Cc1cnc2nc(N)nc(N)c2n1)c1ccc(C(=O)N[C@@H](CCC(=O)O)C(=O)O)cc1` [Methotrexate] was tested, and the “effect on luciferase activity” value ([1]; 24 h) was “no effect” and the Type of modulation ([1]; AREc32, 24 h) was “Inactive”.

In the case of `O=C1c2c(O)ccc(O)c2C(=O)c2c(NCCNCCO)ccc(NCCNCCO)c21` [Mitozantrone], the “effect of BSO pre-treatment on luciferase activity” value ([1]; 50 μM BSO 24 h before drug, data not shown) is reported as “did not change luciferase activity significantly” and the Type of modulation ([1]; AREc32, 24 h) is reported as “Weak inducers”.

For `CC(=O)N[C@@H](CS)C(=O)O` [NAC], the “repression of anticancer drug induction of luciferase activity” value [3] was “nearly completely repressed”.

In the case of `S=C(S)N1CCCC1` [PDTC], the “CD, concentration” value ([1]; AREc32, 24 h) is reported as 20 µM.

In the case of `CC(=O)O[C@H]1C(=O)[C@@]2(C)[C@H]([C@H](OC(=O)c3ccccc3)[C@]3(O)C[C@H](OC(=O)[C@H](O)[C@@H](NC(=O)c4ccccc4)c4ccccc4)C(C)=C1C3(C)C)[C@]1(OC(C)=O)CO[C@@H]1C[C@@H]2O` [Paclitaxol], the “effect on luciferase activity” value ([1]; 24 h) is reported as “no effect” and the Type of modulation ([1]; AREc32, 24 h) is reported as “Inactive”.

`CC(=O)OC/C=C(C)/C=C/C=C(C)/C=C/C1=C(C)CCCC1(C)C` [Retinyl acetate] was tested, and the “sulforaphane-induced AKR1C protein” value [4] was “reduced the expression of sulforaphane-induced AKR1C”, the “synergy with Bleomycin (cell killing, isobologram)” value (MCF7 cells; 72 hrs) was “very potent, synergistic increase in cell killing” and the “constitutive expression of AKR1C1 mRNA” value [5] was “inhibited the constitutive expression of AKR1C1 in a concentration-dependent manner”.

For `C[S+]([O-])CCCCN=C=S` (centres unmarked) [SUL, sulforaphane], the “CD, concentration” value ([1]; AREc32, 24 h) was 2 µM, the “induction of AKR1C1 mRNA” value [6] was 12 fold and the “induction of NQO1 mRNA” value [6] was “less markedly induced”.

`S=P(N1CC1)(N1CC1)N1CC1` [Thiotepa] was tested, and the “effect on luciferase activity” value ([1]; 24 h) was “no effect” and the Type of modulation ([1]; AREc32, 24 h) was “Inactive”.

In the case of `CC1=C(/C=C/C(C)=C/C=C/C(C)=C/C=O)C(C)(C)CCC1` [all-trans retinal], the “sulforaphane-induced AKR1C protein” value [4] is reported as “reduced the expression of sulforaphane-induced AKR1C” and the “constitutive expression of AKR1C1 mRNA” value [5] is reported as “inhibited the constitutive expression of AKR1C1 in a concentration-dependent manner”.

For `CS(=O)(=O)OCCCCOS(C)(=O)=O` [busulphan], the “induction of ARE-driven luciferase activity” value ([1]; previously determined non-toxic concentration, 24 hours) was 3.1 fold.

For `CCC(=O)OC/C=C(C)/C=C/C=C(C)/C=C/C1=C(C)CCCC1(C)C` [vitamin A propionate], the “sulforaphane-induced AKR1C protein” value [4] was “reduced the expression of sulforaphane-induced AKR1C”.

Bleomycin showed an IC50 (MCF7 cells; single agent) of 660 µM and an IC50 (A549 cells) of 55 µM.

Reference: patent US20120309087A1, “CANCER THERAPY” (University Court of The University of Dundee, priority 2006, published 2012)
